Laboratory results: US5089624A, “Dihydropyridine derivatives” (Yuhan Corporation, priority 1988, dated 1992)

System: spiral strips of rabbit aorta
Experiment: Reduction of calcium-induced contraction of K+-depolarised rabbit aorta spiral strips
Assay type: cell-based
Conditions: for IC50: Oryctolagus cuniculus, molar concentration required to reduce the contractile response by 50%, 35 mM potassium, 2 mM calcium ion
Procedure: The test is performed by mounting spiral strips of rabbit aorta with one end fixed and the other attached to a force transducer. The mounted tissue is immersed in a physiological salt solution containing potassium ion at a concentration of 35 millimole and no calcium. Calcium chloride is added to the bath to give a final calcium ion concentration of 2 millimole. The change in tension caused by the resulting contraction of the tissue is noted. The bath is drained and replaced with fresh salt solution and, 45 minutes later the test is repeated with the addition of the compound being tested in the presence of salt solution and, […] The concentration of compound required to reduce the response by 50% is recorded. The anti-hypertensive activity of the compounds is also evaluated oral administration by measuring the decrease fall in blood pressure in spontaneously hypertensive rats.

SMILES	IC50 [nM]	activity ranking in words (the smaller the concentration, the more active) (ranking by IC50 in Table 1)
CSCOC(=O)C1=C(C)NC(C)=C(C(=O)OC(C)C)C1c1cccc([N+](=O)[O-])c1 (stereo not drawn) [Example 3]	56	
COC(=O)C1=C(C)NC(C)=C(C(=O)OCSC)C1c1ccccc1C(F)(F)F (stereo not drawn) [Example 6]	19	
CCSCOC(=O)C1=C(C)NC(C)=C(C(=O)OC)C1c1cccc([N+](=O)[O-])c1 (stereo not drawn) [Example 4]	17	
COCOC(=O)C1=C(C)NC(C)=C(C(=O)OC)C1c1cccc([N+](=O)[O-])c1 (stereo not drawn) [Example 7]	42	
COC(=O)C1=C(C)NC(C)=C(C(=O)OCSC)C1c1cccc([N+](=O)[O-])c1 (stereo not drawn) [Example 1, 2,6-dimethyl-4-(3'-nitrophenyl)-1,4-dihydropyridine-3,5-dicarboxylic acid 3-methylthiomethyl ester 5-methyl ester]	4	most active compound
COC(=O)C1=C(C)NC(C)=C(C(=O)OCSC)C1c1cccc(Cl)c1Cl (stereo not drawn) [Example 5]	29	
CCOC(=O)C1=C(C)NC(C)=C(C(=O)OCSC)C1c1cccc([N+](=O)[O-])c1 (stereo not drawn) [Example 2]	20	

Now from value to molecule, other results behind:

IC50 [nM]	SMILES	activity ranking in words (the smaller the concentration, the more active) (ranking by IC50 in Table 1)
29	CCOCOC(=O)C1=C(C)NC(C)=C(C(=O)OC)C1c1cccc([N+](=O)[O-])c1 (stereo not drawn) [Example 9]	
11	COC(=O)C1=C(C)NC(C)=C(C(=O)OCSC)C1c1ccccc1[N+](=O)[O-] (stereo not drawn) [Example 12]	
20	COCOC(=O)C1=C(C)NC(C)=C(C(=O)OC)C1c1cccc(Cl)c1Cl (stereo not drawn) [Example 10]	
80	COC(=O)C1=C(C)NC(C)=C(C(=O)OCSC)C1c1cccc2nonc12 (stereo not drawn) [Example 11]	
26	COCOC(=O)C1=C(C)NC(C)=C(C(=O)OC(C)C)C1c1cccc([N+](=O)[O-])c1 (stereo not drawn) [Example 8]	
142	COC(=O)C1=C(C)NC(C)=C(C(=O)OCSc2ccccc2)C1c1cccc([N+](=O)[O-])c1 (stereo not drawn) [Example 13, 2,6-dimethyl-4-(3-nitrophenyl)-1,4-dihydropyridine-3,5-dicarboxylic acid 3-phenylthiomethyl, 5-methylester]	
35	COC(=O)C1=C(C)NC(C)=C(C(=O)OCCN(C)Cc2ccccc2)C1c1cccc([N+](=O)[O-])c1 (stereo not drawn) [control, Nicardipine, reference compound]	
